# From patent US20250290915A1, “METHOD FOR PREDICTING RESPONSIVENESS TO THERAPY” (CANCERTAIN LIMITED, priority 2022, published 2025)
# Experiments:
# Assay type in all cases: cell-based, human
# [1] = test system: Circulating tumour cells (CTCs) from a patient with GI cancer (Cholangio Carcinoma, stage 4); experiment: Drug response score assay on blood sample, Example 9; parameters: key to Drug response score from blood sample, conc. 1 / Drug response score from blood sample, conc. 2 / Drug response score from blood sample, conc. 3 / Drug response score from blood sample, conc. 4: normalized drug response metric per Gupta et al. 2020; settings: for effectiveness on Circulating Tumour Cells under laboratory conditions: GI cancer (Cholangio Carcinoma) blood sample; for Drug response score from blood sample, conc. 1: conc. 1 of each drug as in Table 27; for Drug response score from blood sample, conc. 1 / Drug response score from blood sample, conc. 2 / Drug response score from blood sample, conc. 3 / Drug response score from blood sample, conc. 4: t96h; for Drug response score from blood sample, conc. 2: conc. 2 of each drug as in Table 27; for Drug response score from blood sample, conc. 3: conc. 3 of each drug as in Table 27; for Drug response score from blood sample, conc. 4: conc. 4 of each drug as in Table 27; for Drug sensitivity as calculated by the assay, Blood: interpretation based on Drug Response Scores; for Drug response score from blood sample, conc. 1 / Drug response score from blood sample, conc. 2 / Drug response score from blood sample, conc. 3 / Drug response score from blood sample, conc. 4 / Drug sensitivity as calculated by the assay, Blood: blood sample
# Experimental: (§1) CD45^+ cells and circulating tumour cells (CTCs) were isolated from a blood sample provided by each subject.
# (§2) CD45 separation was performed by adding human CD45 microbeads (50 μl/ml blood), incubating for 15 minutes at 4° C. and then processing using an AutoMACS machine. This separates the blood sample into CD45^+ and CD45^−cells in 2 separate falcons. The falcon tubes are then centrifuged at 1200 rpm for 5 minutes.
# The supernatant was removed from the CD45^+falcon tube, and the cells resuspended in DMEM with 2 μl Cell Tox, 2 μl MT and 2 μl MT. 20 μl of the resuspended CD45^+ cells was then plated in each well which will contain an immunotherapy treatment.
# (§3) The supernatant was removed from the CD45^−falcon tube, and the CD45^−cells contacted with 100 μl of FcR block and 100 μl of CD326 (EpCAM) MicroBeads, followed by incubation at […] 4° C. for 30 minutes. The CD45^−cells were then processed using an AutoMACS machine to separate the EpCAM positive and negative cells into 2 separate falcon tubes. The EpCAM-cells were discarded. The supernatant was removed from the EpCAM^+ cells, and the cells resuspended in DMEM with 2 μl Cell Tox, 2 μl MT and 2 μl MT. 20 μl of the resuspended pellet was then added to all sample wells excluding a blank. After all wells are added to, a cell count was conducted on the […] to determine the number of circulating tumour cells (CTCs).
# (§4) The different cell types were each divided equally into populations, depending on the number of drugs/concentrations to be tested and plated on a cell-culture plate pre-coated with a scaffold of polycaprolactone (PCL) electrospun fibres and incubated at 37° C., 5% CO2, for 5 to (typically 10) minutes to facilitate cell attachment. After attachment, an initial imaging step was carried out using the RealTime-Glo™ MT assay from Promega (Catalogue No. G9711)) and the CellTox™ Green Cytotoxicity Assay (Promega, Catalogue No. G8741), carried out according to manufacturer's instructions. Following this initial imagining, the immunotherapeutic and/or chemotherapeutic agents were added to the cell populations as indicated below. After 10 minutes, the imagining step was repeated. The cell populations were then incubated at 37° C., 5% CO2 for 48 hours. The imaging step was then repeated. The cell populations were then re-dosed with the same immunotherapeutic and/or chemotherapeutic agents as indicated below, and incubated at 37° C., 5% CO2 for a further 48 hours. After this second 48 hour incubation, the imagining step was repeated for a final time.
# (§5) At the end of this culture period, dose response scores were calculated using a normalized drug response metric as described in Gupta et al. (Communications Biology volume 3, Article number: 42 (2020), https://doi.org/10.1038/s42003-020-0765-z). The start readout for a given immunotherapeutic or chemotherapeutic agent at a given concentration was the to readout for said immunotherapeutic or chemotherapeutic agent at a specified concentration. The end readout for a given immunotherapeutic or chemotherapeutic agent at a given concentration was the final timepoint reading (t96h) for said immunotherapeutic or chemotherapeutic agent at a specified concentration.
# (§6) The positive control start readout for a given drug/concentration was the to readout for the corresponding drug at a specified concentration. The positive control end readout for the corresponding drug at a specified concentration was the final timepoint reading (t96h) for the corresponding blank well.
# (§7) The negative control start and end readouts for a given immunotherapeutic or chemotherapeutic agent at a given concentration were the to and final timepoint reading (t96h) respectively for blank cell or blank immuno cell well respectively.
# The sensitivity or resistance of a subject's cancer to a given immunotherapeutic or chemotherapeutic agent was determined based on the calculated drug response score as shown in Table 2. […]
# [2] = test system: Cancer Cells from tissue sample (CSCs, tumour marker+ cells) of a patient with GI cancer (Cholangio Carcinoma, stage 4); experiment: Drug response score assay on tissue sample, Example 9; settings: for effectiveness on Cancer Cells from tissue sample under laboratory conditions: GI cancer (Cholangio Carcinoma) tissue sample; for Drug response score, conc. 1 / Drug response score, conc. 2 / Drug response score, conc. 3 / Drug response score, conc. 4 / Drug sensitivity as calculated by the assay, Tissue: tissue sample; for Drug response score, conc. 1: conc. 1 per Table 27B: Pem 20, Niv 20, Atez 100, Pacli 0.05, Irino 5, Beva 1 μg/ml, Len 50, 5-FU 250 ng/ml; for Drug response score, conc. 2: conc. 2 per Table 27B: Pem 40, Niv 40, Atez 200, Pacli 0.1, Irino 10, Beva 2 μg/ml, Len 100, 5-FU 500 ng/ml; for Drug response score, conc. 3: conc. 3 per Table 27B: Pem 100, Niv 80, Atez 400, Pacli 0.2, Irino 25, Beva 4 μg/ml, Len 200, 5-FU 1000 ng/ml; for Drug response score, conc. 4: conc. 4 per Table 27B: Pem 160, Niv 160, Atez 800, Pacli 1, Irino 50, Beva 8 μg/ml, Len 400, 5-FU 2000 ng/ml; for Drug sensitivity as calculated by the assay, Tissue: interpretation based on Drug Response Scores
# Experimental: Where a tissue sample was provided by each subject, cancer stem cells (CSCs, CD133^+), were isolated from said sample. Tumour marker cells were further isolated from each tissue sample. The remaining cells were designated tumour marker^+ cells.
# First, disaggregation of the tissue samples was carried out. Disaggregation was dependent on the size of the tissue sample and the method of retrieval: • EBUS (Endobronchial Ultrasound Scan and Biopsy)—very small fragments of tissue in solution-spun at 1200 rpm for 5 minutes to collect tissue pellet • Bronchoscopy-larger fragments with larger amount of blood vessels • Broncho-lavage-similar to EBUS, spun at 1200 rpm for 5 minutes to collet tissue pellet
# Once a pellet of tissue obtained, DMEM added to the tissue pellet and the material forced through a […] Smart strainer. Once a cell suspension was achieved, this was spun at 1200 rpm for 5 minutes and the supernatant removed. The cells were then resuspended to a volume of 60 μl.
# 20 μl of FcR block and 20 μl of CD133 microbeads were added to the resuspended cells, followed by incubation for 15 minutes at 4° C. The cells were then processed using an AutoMACS machine. This separates the […] into CD133^+ and CD133^− cells in 2 separate falcons. The falcon tubes are then centrifuged at 1200 rpm for 5 minutes.
# The supernatant was removed from the CD133+falcon tube, and the cells resuspended in DMEM with 2 μl Cell Tox, 2 μl MT and 2 μl MT. 20 μl of the resuspended […] was then plated in each well which will contain an immunotherapy treatment.
# The supernatant was removed from the CD133^− falcon tube, and the CD133^− cells contacted with 40 μl of a tumour separation microbeads cocktail containing microbeads bound to anti-CD31, anti-CD45, anti-Glycophorin-A (Gly-A) and an anti-fibroblast antibody.
# This cocktail is used to separate out tumour marker cells using MACS, by separating out CD31^+, CD45^+ and Gly-A^+ cells. In addition, anti-fibroblast antibody-labelled beads are also used. The cocktail is added to the CD133^− falcon tube, followed by incubation for 15 minutes at 4° C. MACS is carried out using an AutoMACS machine. This cells which are not bound by the CD31, CD45, Gly-A and anti-fibroblast antibody beads are the tumour marker^+ cells.
# as §4
# as §5, with “The end readout for a given immunotherapeutic or chemotherapeutic agent at a given concentration was the final timepoint reading (t96h) for said immunotherapeutic or chemotherapeutic agent at a specified concentration.” left out
# [3] = test system: Circulating Tumour Cells (CTCs) from a patient with head and neck cancer (squamous cell carcinoma); experiment: Drug response score assay on CTCs from blood, Example 6
# Experimental: as §1, §2, §3, §4, §5, §6, §7
# (§8) The sensitivity or resistance of a subject's cancer to a given immunotherapeutic or chemotherapeutic agent was determined based on the calculated drug response score as shown in Table 2.
# Blood samples from a patient with head and neck cancer (squamous cell carcinoma) were received on 11 Mar. 2022 and tested using a 7 drug panel.
# [4] = test system: Circulating Tumour Cells (CTCs) from a patient with colon cancer (sigmoid colon cancer); experiment: Drug response score assay on CTCs from blood, Example 8; parameters: key to Drug response score, conc. 1 / Drug response score, conc. 2 / Drug response score, conc. 3 / Drug response score, conc. 4: normalized drug response metric (Gupta et al. 2020); settings: for Drug response score, conc. 1: conc. 1 of each drug as in Table 24; for Drug response score, conc. 1 / Drug response score, conc. 2 / Drug response score, conc. 3 / Drug response score, conc. 4: CTCs, t96h; for Drug response score, conc. 2: conc. 2 of each drug as in Table 24; for Drug response score, conc. 3: conc. 3 of each drug as in Table 24; for Drug response score, conc. 4: conc. 4 of each drug as in Table 24; for Drug sensitivity as calculated by the assay (interpretation of Drug Response Scores): Table 26
# Experimental: as §1, §2, §3
# as §4, with “After” for “The different cell types were each divided equally into populations, depending on the number of drugs/concentrations to be tested and plated on a cell-culture plate pre-coated with a scaffold of polycaprolactone (PCL) electrospun fibres and incubated at 37° C., 5% CO2, for 5 to (typically 10) minutes to facilitate cell attachment. After”
# as §5, §6, §7, §8
# Blood samples from a patient with colon cancer (sigmoid colon cancer) were received on 8 Mar. 2022 and tested using a 9 drug panel.
# Chemotherapeutic agents were tested as in Table 24.
compound,measurement,setting,value
O=c1[nH]cc(F)c(=O)[nH]1 [5 FluoroUracil],effectiveness on Circulating Tumour Cells under laboratory conditions,[1],S+
same,"Drug response score from blood sample, conc. 1",[1],0.4147
same,"Drug response score from blood sample, conc. 2",[1],0.341
same,"Drug response score from blood sample, conc. 3",[1],0.422
same,"Drug response score from blood sample, conc. 4",[1],0.08131
same,effectiveness on Cancer Cells from tissue sample under laboratory conditions,[2],S+
same,"Drug response score, conc. 1",[2],0.9334
same,"Drug response score, conc. 2",[2],0.9488
same,"Drug response score, conc. 3",[2],0.9924
same,"Drug response score, conc. 4",[2],0.01222
O=c1[nH]cc(F)c(=O)[nH]1 [5FU],"Drug sensitivity as calculated by the assay, Blood",[1],S+
same,"Drug sensitivity as calculated by the assay, Tissue",[2],S+
CCCCCOC(=O)Nc1nc(=O)n([C@@H]2O[C@H](C)[C@@H](O)[C@H]2O)cc1F [Capecitabine],"Drug response score, conc. 1","[3]; conc. 1: Ifos 0.125 μg/ml, Gemcit 2 μg/ml, Doxo 10 ng/ml, Etop 1 μg/ml, Metho 0.5 μg/ml, Capecit 200 μg/ml, Vinor 20 μg/ml, CTCs, t96h",0.7820
same,"Drug response score, conc. 2","[3]; conc. 2: Ifos 0.25 μg/ml, Gemcit 10 μg/ml, Doxo 30 ng/ml, Etop 4 μg/ml, Metho 1 μg/ml, Capecit 300 μg/ml, Vinor 40 μg/ml, CTCs, t96h",0.9244
same,"Drug response score, conc. 3","[3]; conc. 3: Ifos 5 μg/ml, Gemcit 20 μg/ml, Doxo 90 ng/ml, Etop 20 μg/ml, Metho 2 μg/ml, Capecit 400 μg/ml, Vinor 80 μg/ml, CTCs, t96h",0.6113
same,"Drug response score, conc. 4","[3]; conc. 4: Ifos 10 μg/ml, Gemcit 40 μg/ml, Doxo 270 ng/ml, Etop 100 μg/ml, Metho 4 μg/ml, Capecit 600 μg/ml, Vinor 200 μg/ml, CTCs, t96h",1.0037
same,effectiveness on Circulating Tumour Cells under laboratory conditions,[3]; head and neck cancer CTCs,not effective
same,Drug sensitivity as calculated by the assay (interpretation of Drug Response Scores),"[3]; head and neck cancer CTCs, Table 20",Resistant
Nc1nc2[nH]cc(CCc3ccc(C(=O)N[C@@H](CCC(=O)O)C(=O)O)cc3)c2c(=O)[nH]1 [Pemetrexed],"Drug response score, conc. 1",[4],5.1780
same,"Drug response score, conc. 2",[4],−1.0000
same,"Drug response score, conc. 3",[4],−1.0000
same,"Drug response score, conc. 4",[4],−1.0000
same,effectiveness on Circulating Tumour Cells under laboratory conditions,[4]; sigmoid colon cancer CTCs,S+++
same,Drug sensitivity as calculated by the assay (interpretation of Drug Response Scores),[4]; sigmoid colon cancer CTCs,Sensitive (S+++)
Cn1nnc2c(C(N)=O)ncn2c1=O [Temozolamide],"Drug response score, conc. 1",[4],−1.0000
same,"Drug response score, conc. 2",[4],0.0367
same,"Drug response score, conc. 3",[4],−0.1421
same,"Drug response score, conc. 4",[4],−0.4687
same,Drug sensitivity as calculated by the assay (interpretation of Drug Response Scores),[4]; sigmoid colon cancer CTCs,Sensitive (S++)
Atezolizumab,effectiveness on Circulating Tumour Cells under laboratory conditions,[1],S++
same,"Drug response score from blood sample, conc. 1",[1],0.1037
same,"Drug response score from blood sample, conc. 2",[1],0.1499
same,"Drug response score from blood sample, conc. 3",[1],0.3493
same,"Drug response score from blood sample, conc. 4",[1],0.4391
same,"Drug sensitivity as calculated by the assay, Blood",[1],S++
same,effectiveness on Cancer Cells from tissue sample under laboratory conditions,[2],S+
same,"Drug sensitivity as calculated by the assay, Tissue",[2],S+
same,"Drug response score, conc. 1",[2],0.8904
same,"Drug response score, conc. 2",[2],0.9047
same,"Drug response score, conc. 3",[2],0.8647
same,"Drug response score, conc. 4",[2],0.7954
Bevacizumab,"Drug response score from blood sample, conc. 1",[1],0.4605
same,"Drug response score from blood sample, conc. 2",[1],1.257
same,"Drug response score from blood sample, conc. 3",[1],1.837
same,"Drug response score from blood sample, conc. 4",[1],2.21
same,"Drug response score, conc. 1",[2],0.93
same,"Drug response score, conc. 2",[2],0.9294
same,"Drug response score, conc. 3",[2],0.932
same,"Drug response score, conc. 4",[2],0.9261
